Data published in US9187524B2, “Broad spectrum antibiotic arylomycin analogs” (The Scripps Research Institute, priority 2010, dated 2015).
In brackets after ≈: the same amount, converted by molar mass. Like-named read-outs stand apart in the source and are kept apart here.

How the values were obtained:
[1] = test system: wild type S. epidermidis RP62A; test: microbe, parasite or virus in culture; type: cell-based, Staphylococcus epidermidis; conditions: Staphylococcus epidermidis
[2] = test system: lepB(P29S) S. aureus 8325; test: microbe, parasite or virus in culture; type: cell-based, Staphylococcus aureus; conditions: for MIC: Staphylococcus aureus
wild type S. aureus 8325 = test: microbe, parasite or virus in culture; type: cell-based, Staphylococcus aureus; conditions: for MIC: Staphylococcus aureus
R. opacus = test: microbe, parasite or virus in culture; type: cell-based; conditions: Rhodococcus opacus
S. agalactiae = test: microbe, parasite or virus in culture; type: cell-based, Streptococcus agalactiae; conditions: for MIC: Streptococcus agalactiae
C. glutamicum = test: microbe, parasite or virus in culture; type: cell-based, Corynebacterium glutamicum; conditions: for MIC: Corynebacterium glutamicum
[3] = test system: Staphylococcus haemolyticus; test: microbe, parasite or virus in culture; type: cell-based; conditions: Table 13
[4] = test system: Staphylococcus aureus (different strains); type: cell-based; conditions: Table 13; multiple values: different strains
Enterococcus faecalis = test: microbe, parasite or virus in culture; type: cell-based; conditions: Table 13
Bacillus subtilis = test: microbe, parasite or virus in culture; type: cell-based; conditions: Table 13
Lactobacillus gasseri = test: microbe, parasite or virus in culture; type: cell-based; conditions: Table 13
Clostridium difficile = test: microbe, parasite or virus in culture; type: cell-based; conditions: Clostridioides difficile, Table 13
Clostridium perfringens = test: microbe, parasite or virus in culture; type: cell-based; conditions: read-out: MIC, Clostridium perfringens
Prevotella copris = test: microbe, parasite or virus in culture; type: cell-based; conditions: Table 13
[5] = test system: E. coli strains harboring the indicated amino acid at SPase residue 84; test: microbe, parasite or virus in culture; type: cell-based; conditions: Escherichia coli
[6] = biological target: T1, P84S variant of truncated E. coli SPase (Escherichia coli, UniProt P00803, P84S); test: biochemical; type: binding
T1 construct: a truncated wild type E. coli SPase that lacks the N-terminal membrane helices; made in house; host or cells: E. coli BL21(DE3)
T1 sequence (P00803 76-324, looked up, stated change not applied): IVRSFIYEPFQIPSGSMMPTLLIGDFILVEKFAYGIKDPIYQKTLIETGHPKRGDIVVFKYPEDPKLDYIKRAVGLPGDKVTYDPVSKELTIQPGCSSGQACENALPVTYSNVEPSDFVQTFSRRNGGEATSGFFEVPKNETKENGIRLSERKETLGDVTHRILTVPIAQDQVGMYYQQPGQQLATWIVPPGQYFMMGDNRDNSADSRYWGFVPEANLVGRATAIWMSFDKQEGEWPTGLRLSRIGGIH

`CCCCCCCCCCCCCCCC(=O)N(C)[C@H](CO)C(=O)N[C@H](C)C(=O)NCC(=O)N(C)[C@@H]1C(=O)N[C@@H](C)C(=O)N[C@H](C(=O)O)Cc2ccc(O)c(c2)-c2cc1ccc2O` [Arylomycin C16] showed an MIC ([1]; Table 11, […], read-out: MIC, S. epidermidis RP62A) of 0.25 µg/mL (≈ 0.284 µM), an MIC ([1]; Table 13, […], read-out: MIC, Staphylococcus epidermidis) of 0.25 µg/mL (≈ 0.284 µM) and an MIC ([1]; read-out: MIC, S. epidermidis) of 0.25 µg/mL (≈ 0.284 µM). The MIC ([1]; read-out: MIC, Sensitive Se) was 0.5 µg/mL (≈ 0.567 µM), the MIC ([2]; read-out: MIC, S. aureus P29S) was 8 µg/mL (≈ 9.08 µM) and the MIC ([2]; read-out: MIC, S. aureus PAS8001) was 2 µg/mL (≈ 2.27 µM). The MIC ([2]; read-out: MIC, Sensitive Sa) was 2 µg/mL (≈ 2.27 µM), the “MIC, Sensitive Sa” value ([2]; Table 2B, SPase without resistance-conferring Pro) was 2 µg/mL (≈ 2.27 µM) and the MIC (wild type S. aureus 8325; read-out: MIC, Resistant Sa) was over 64 µg/mL. The MIC (wild type S. aureus 8325; Table 11, […], read-out: MIC, S. aureus NTCT 8325) was over 128 µg/mL, the “MIC, Resistant Sa” value (wild type S. aureus 8325; Table 2B, SPase with resistance-conferring Pro) was over 64 µg/mL and the MIC (R. opacus; Table 4, read-out: MIC, R. opacus) was 1 µg/mL (≈ 1.13 µM). The MIC (R. opacus; Table 13, […], read-out: MIC, Rhodococcus opacus) was 2 µg/mL (≈ 2.27 µM), the MIC (S. agalactiae; Table 4, read-out: MIC, S. agalactiae) was over 128 µg/mL and the MIC (S. agalactiae; Table 13, […], read-out: MIC, Streptococcus agalactiae) was over 128 µg/mL. The “MIC, S. agalactiae” value (S. agalactiae; Table 14) was over 128 µg/mL, the MIC (C. glutamicum; Table 4, read-out: MIC, C. glutamicum) was 2 µg/mL (≈ 2.27 µM) and the MIC (C. glutamicum; text b755, read-out: MIC, Corynebacterium glutamicum) was 2 µg/mL (≈ 2.27 µM). For the same compound, the “MIC, Corynebacterium glutamicum” value (C. glutamicum; Table 13, […]) was 2 µg/mL (≈ 2.27 µM), the MIC [3] was 2 µg/mL (≈ 2.27 µM) and the “MIC, Staphylococcus aureus” value [4] was 16 to 32 µg/mL. For the same compound, the MIC (Enterococcus faecalis) was over 64 µg/mL, the MIC (Bacillus subtilis) was over 128 µg/mL and the MIC (Lactobacillus gasseri) was over 128 µg/mL. It also gave an MIC (Clostridium difficile) of over 16 µg/mL, an MIC (Clostridium perfringens) of over 16 µg/mL and an MIC (Prevotella copris) of over 16 µg/mL. The MIC ([5]; read-out: MIC, E. coli SPase residue 84 His variant) was 4 µg/mL (≈ 4.54 µM), the MIC ([5]; read-out: MIC, E. coli SPase residue 84 Phe or His variant) was 2 µg/mL (≈ 2.27 µM) and the MIC ([5]; read-out: MIC, E. coli with Pro at SPase residue 84) was over 256 µg/mL. For the same compound, the MIC ([5]; read-out: MIC, E. coli with any other amino acid at SPase residue 84) was at most 16 µg/mL and the Kd [6] was 39 ± 15 nM.
